Data set [1] relates to volunteers. Kind of data set: Triglyceride levels in volunteers after a single intravenous dose of HPBCD (FIG. 3A). It counts as in vivo, humans. Here is the method: Twenty-nine volunteers were divided into five groups. Each group was administered an intravenous dose of 50 mg/kg, 250 mg/kg, 500 mg/kg, 1000 mg/kg or 1500 mg/kg of HPBCD as shown in FIG. 3A. Blood samples were taken immediately prior to injection to establish a baseline triglyceride concentration, and at 24 hours (D2) and 48 hours (D3) post injection for measurement of triglyceride levels. […] Overall, triglyceride levels of participants decreased, particularly evident in participants with higher baseline triglyceride concentrations.

The subject of data set [2] is volunteers. Kind of data set: Separate placebo-controlled study: change in triglyceride levels from baseline in volunteers (FIG. 3B-3D). The class given is in vivo, humans. The note with it: intravenous 500, 1000 or 1500 mg/kg. Here is the method: In a separate study, volunteers were divided into four groups. Each group was administered an intravenous dose of placebo or an intravenous dose of 500 mg/kg, 1000 mg/kg or 1500 mg/kg of HPBCD as shown in FIG. 3B. Blood samples were taken immediately prior to injection to establish a baseline triglyceride concentration, and at 24 hours (left bar) and 48 hours (right bar) post injection. Triglyceride levels are presented as the median average percentage change from baseline. […] The data in FIG. 3B were divided into two groups for further analysis. Group 1 consisted of the portion of the cohort which had baseline triglyceride levels greater than 100 mg/dL. Group 2 had baseline triglyceride levels less than or equal to 100 mg/dL. The average percentage change of triglyceride levels from baseline of Group 1 and Group 2 is shown in FIG. 3C and FIG. 3D respectively. […] This is consistent with the marked reduction (˜30%) in triglyceride levels observed for the one participant in FIG. 3A with a baseline triglyceride level of approximately 425 mg/dL.

The test system of data set [3] is LDL receptor deficient (LDLR−/−) mice. Briefly: Serum triglyceride levels in LDLR−/− mouse model after 2 g/kg HPBCD. The class given is in vivo. The source says:
LDL receptor deficient (LDLR^−/−) mice were divided into 6 Groups. Prior to the administration of 2 g/kg of HPBCD, Group 1 was fed with normal chow diet (NC) for 5 weeks and Group 2-Group 6 were fed with high-fat (42%), high-cholesterol (1.2%) Western diet (WD) for various durations up to 9 weeks. Experimental scheme and diet schedule is described in FIG. 1A. Mice of Group 1 were further categorized into 3 sub-Groups (e.g., Group 1.1, Group 1.2, and Group 1.3) according to the administration of HPBCD as shown in FIG. 1B. Blood samples were taken from the mouse models, after 5 weeks of feeding and at a certain period of time (e.g., 1 week, 2 weeks, 3 weeks, 4 weeks after 2 g/kg HPBCD treatment), for measurement of triglyceride levels in each model Group. […] (FIG. 2A).

We go through one molecule from patent US20240398849A1, “METHODS FOR THE TREATMENT OF […] WITH CYCLODEXTRINS” (BEREN THERAPEUTICS P.B.C., priority 2022, published 2024).

On to `CC(O)COC[C@H]1O[C@@H]2O[C@H]3[C@H](O)[C@@H](O)[C@@H](O[C@H]4[C@H](O)[C@@H](O)[C@@H](O[C@H]5[C@H](O)[C@@H](O)[C@@H](O[C@H]6[C@H](O)[C@@H](O)[C@@H](O[C@H]7[C@H](O)[C@@H](O)[C@@H](O[C@H]8[C@H](O)[C@@H](O)[C@@H](O[C@H]1[C@H](O)[C@H]2O)O[C@@H]8COCC(C)O)O[C@@H]7COCC(C)O)O[C@@H]6COCC(C)O)O[C@@H]5COCC(C)O)O[C@@H]4COCC(C)O)O[C@@H]3COCC(C)O` (stereo partly drawn) [HPBCD, 2-hydroxypropyl-beta-cyclodextrin], for which the “reduction in triglyceride levels” value in the data set on volunteers [1] (one participant in FIG. 3A with baseline triglyceride level of approximately 425 mg/dL) is roughly 30%. Also, in the data set with volunteers [1] (volunteers, intravenous 50, 250, 500, 1000 or 1500 mg/kg, 24 h and 48 h post injection, any tested dose, FIG. 3A), the “triglyceride levels following administration (safety)” value was “did not significantly increase”. Also, in the data set with volunteers [1] (volunteers, intravenous 50-1500 mg/kg, 24 h and 48 h post injection, particularly evident with higher baseline triglyceride), the “triglyceride levels of participants overall” value is given as “decreased”. Besides, in the data set with volunteers [2] (24 h and 48 h, FIG. 3C and 3D), the “reduction in triglyceride levels, Group 1 (baseline >100 mg/dL) versus Group 2 (baseline ≤100 mg/dL)” value is recorded as “greater reduction in triglyceride levels was observed in participants in Group 1 than those in Group 2”. Further, the “triglyceride levels, median average percentage change from baseline” value in the data set on volunteers [2] (24 h and 48 h post injection, any tested dose, FIG. 3B) is listed as “did not increase”. In addition, the “triglyceride levels of WD-fed mice after the administration of HPBCD” value in data set [3] (Western diet (WD), blood sampled 1-4 weeks after treatment, FIG. 2A) was “decreased over time”. For the same molecule, in data set [3] (normal chow diet (NC), FIG. 2B), the “triglyceride level of NC-fed mice after the administration of HPBCD” value is “decreased from 24 hours after the administration”.
